Data on three compounds can be found in article PMC3785448, “Effect of Selectively Introducing Arginine and D-Amino Acids on the Antimicrobial Activity and Salt Sensitivity in Analogs of Human Beta-Defensins” (PLoS ONE, 2013).

Structures are written as SMILES. In brackets after ≈: the same amount, converted by molar mass. Bridge positions count the residues as written; N and C are the ends. Square brackets hold non-standard residues; d marks the D form. Peptide text beside a SMILES is read from it.

The subject of one experiment is C. albicans. The experiment in a line: Candidacidal activity, minimum fungicidal concentration. Particulars: minimum fungicidal concentration = no viable colonies; 10^6 cells/ml in 10 mM phosphate buffer pH 7.4, 2 h at 30°C, plated 24 h; average of three independent experiments in duplicate. It is filed as cell-based. The method, then:
Minimum fungicidal concentrations (MFC) of the peptides were determined by growing C. albicans aerobically in yeast extract-peptone-dextrose (YEPD) medium at 30°C. After 20 h, 0.5 ml from this suspension was subcultured for 2 h in 20 ml of YEPD broth to obtain a mid-log-phase culture. Cells were harvested by centrifugation, washed with 10 mM phosphate buffer (PB), pH 7.4, and resuspended in the same buffer, and the concentration was adjusted to 10^6 cells/ml. Aliquots of diluted cells were incubated with peptides in 100 µl volume at 30°C for 2 h. Cell suspensions were diluted and spread on YEPD agar plates and the plates were incubated for 24 h at 30°C. Colonies were counted, and the concentrations of the peptides at which no viable colonies were formed were taken as the Minimum fungicidal concentration (MFC). Cell survival was expressed as a percentage of the control. Percentage killing was calculated as [(colonies from control cells- colonies from treated cells)/colonies from control cells x 100].
The average of results from three independent experiments done with duplicate samples was taken for the calculation of MFC. In control experiments, cells were incubated with only buffer.

The test system of another experiment is E. coli (MG 1655). The experiment is described as follows: Antibacterial activity, lethal concentration (colony count). It is filed as cell-based, Escherichia coli. Particulars: lethal concentration = no viable colonies; 10^6 cfu/ml in 10 mM sodium phosphate buffer pH 7.4, 2 h at 37°C, plated 18 h; average of three independent experiments in duplicate, variation <5%. The method, then: (§1) Bacterial strains used were E. coli (MG 1655), S. aureus (ATCC 8530), and P. aeruginosa (NCTC 6751). The antibacterial activity of the peptides was examined in sterile 96 well plates at a ﬁnal volume of 100 µl as follows: Bacteria were grown in nutrient broth (Bacto Difco nutrient broth) to mid-log phase and diluted to 10^6 colony forming units (cfu)/ml in 10 mM sodium phosphate buffer (pH 7.4). Bacteria were incubated with different concentration of peptides for 2 h at 37°C and suitably diluted aliquots were spread on nutrient agar plates. After the plates were incubated at 37°C for 18 h, colonies formed were counted. Lethal concentration (LC) is the concentration of the peptides at which no viable colonies were formed. Cell survival is expressed as a percentage of the control. Percentage killing was calculated as: [(colonies from control cells- colonies from treated cells)/colonies from control cells x 100]. The LC determined was average of three independent experiments done in duplicate. In control experiments, cells were incubated with only buffer.

A further experiment relates to S. aureus (ATCC 8530). The experiment is described as above. It is filed as cell-based. Particulars: lethal concentration = no viable colonies; 10^6 cfu/ml in 10 mM sodium phosphate buffer pH 7.4, 2 h at 37°C, plated 18 h; average of three independent experiments in duplicate, variation <5%. The method, then:
as §1

For experiment [1], the system named is P. aeruginosa (NCTC 6751). The description is as above. It is filed as cell-based. Conditions: lethal concentration = no viable colonies; 10^6 cfu/ml in 10 mM sodium phosphate buffer pH 7.4, 2 h at 37°C, plated 18 h; average of three independent experiments in duplicate, variation <5%. The protocol:
as §1

A further experiment deals with S. aureus. The experiment is described as follows: Effect of divalent cations on antibacterial activity at LC. It is filed as cell-based. Conditions: peptide at its LC, 1 mM CaCl2. The method, then: (§2) To determine the effect of salt on antibacterial activity, different concentrations of NaCl was included in the incubation buffer at their LC. Different concentrations of divalent cations Ca^2+ and Mg^2+ (as their chloride salts), were included in the buffer to determine their effect on activity at lethal concentration (LC) of the peptides. In control experiments, cells were incubated with only buffer. Data are presented as mean ± standard deviation computed for three independent replicates.
(§3) Figure 2 Effect of divalent cations on antibacterial activity. Mid-log phase bacteria (10^6 CFU/mL) were incubated with peptides at their LC in the absence or presence of the indicated concentrations of CaCl2 and MgCl2. The data are mean values of three independent experiments and the error bars represent standard deviation of the measurements. Standard deviation values ranged between 0.2-2.7.

The test system of a further experiment is P. aeruginosa. The description is as above. It is filed as cell-based. Conditions: peptide at its LC; for Loss in activity at 5 mM Mg2+ against P. aeruginosa: 5 mM MgCl2, as compared to HC-1(R). The protocol:
as §2, §3

The subject of the next experiment is Gram-negative bacteria. The description is as above. Type of experiment: cell-based. Conditions: peptide at its LC; for Antibacterial activity in the presence of 1 mM Ca2+, Gram-negative bacteria: 1 mM CaCl2 in buffer. The protocol:
as §2, §3

The subject of the next experiment is bacteria. The experiment is described as follows: Antibacterial activity, comparison of peptides. Type of experiment: cell-based. Particulars: from LC values. The protocol: as §1

Consider `CC[C@H](C)[C@@H]1NC(=O)[C@H](CCCCN)NC(=O)[C@H]([C@@H](C)O)NC(=O)[C@H](Cc2ccccc2)NC(=O)[C@H]([C@@H](C)CC)NC(=O)[C@@H]2CCCN2C(=O)[C@@H](NC(=O)[C@H](C)N)CSSC[C@@H](C(=O)N[C@@H](CCCNC(=N)N)C(=O)O)NC(=O)[C@H](CCCCN)NC(=O)[C@H](C)NC(=O)[C@H](CCCNC(=N)N)NC(=O)CNC(=O)[C@H](CCCNC(=N)N)NC(=O)[C@H](Cc2ccc(O)cc2)NC(=O)[C@H]([C@@H](C)O)NC(=O)CNC(=O)[C@H](CCC(N)=O)NC1=O` [HC-1(R)] (H-ACPIFTKIQGTYRGRAKCR-OH; disulfide 2-18), for which, in the experiment on C. albicans, the “MFC C. albicans” value is recorded as 2.5 µM (≈ 5.42 µg/mL).

Consider `CC[C@@H](C)[C@H]1NC(=O)[C@H](CCCCN)NC(=O)[C@H]([C@@H](C)O)NC(=O)[C@H](Cc2ccccc2)NC(=O)[C@@H]([C@H](C)CC)NC(=O)[C@@H]2CCCN2C(=O)[C@@H](NC(=O)[C@H](C)N)CSSC[C@@H](C(=O)N[C@@H](CCCNC(=N)N)C(=O)O)NC(=O)[C@H](CCCCN)NC(=O)[C@H](C)NC(=O)[C@@H](CCCNC(=N)N)NC(=O)CNC(=O)[C@@H](CCCNC(=N)N)NC(=O)[C@H](Cc2ccc(O)cc2)NC(=O)[C@H]([C@@H](C)O)NC(=O)CNC(=O)[C@H](CCC(N)=O)NC1=O` [[D]HC-1(R)] (H-ACP[dI]FTK[dI]QGTY[dR]G[dR]AKCR-OH; disulfide 2-18; N-terminus assumed), for which the “LC E. coli” value with E. coli (MG 1655) stood at 5 µM. In addition, in the experiment on S. aureus (ATCC 8530), the “LC S. aureus” value is 5 µM. In experiment [1], the “LC P. aeruginosa” value was found to be 5 µM. In addition, the “Loss in activity against S. aureus at 1 mM Ca2+” value in the experiment on S. aureus is “not”. The “Loss in activity at 5 mM Mg2+ against P. aeruginosa” value in the experiment with P. aeruginosa was “more”. Also, the “Antibacterial activity in the presence of 1 mM Ca2+, Gram-negative bacteria” value in the experiment on Gram-negative bacteria is reported as “is not attenuated”. In the experiment on C. albicans, the “MFC C. albicans” value is recorded as 5 µM (≈ 10.8 µg/mL).

For `CC[C@@H](C)[C@H]1NC(=O)[C@H](CCC(N)=O)NC(=O)[C@H](CCC(=O)O)NC(=O)[C@H](CCC(=O)O)NC(=O)[C@H](CCCCN)NC(=O)[C@@H]2CCCN2C(=O)[C@H](CC(C)C)NC(=O)[C@@H](NC(=O)[C@@H](N)CO)CSSC[C@@H](C(=O)N[C@H](CCCNC(=N)N)C(=O)N[C@H](CCCNC(=N)N)C(=O)N[C@@H](CCCCN)C(=O)N[C@@H](CCCNC(=N)N)C(=O)O)NC(=O)[C@H](CCCCN)NC(=O)[C@@H](CCCNC(=N)N)NC(=O)CNC(=O)[C@@H](CCCNC(=N)N)NC(=O)[C@H]([C@@H](C)O)NC(=O)[C@H](CO)NC(=O)[C@H](CCCCN)NC(=O)CNC1=O` [[D]HC-3(R)] (H-SCLPKEEQ[dI]GKST[dR]G[dR]KC[dR][dR]KR-OH; disulfide 2-18; N-terminus assumed), in the experiment on E. coli (MG 1655), the “LC E. coli” value is reported as 2.5 µM. The “LC S. aureus” value in the experiment with S. aureus (ATCC 8530) is reported as 2.5 µM. Moreover, in experiment [1], the “LC P. aeruginosa” value came to 2.5 µM. The “Fold more active against bacteria as compared to HC-1(R) and [D]HC-1(R)” value in the experiment with bacteria turned out to be 2 fold. The “Loss in activity at 5 mM Ca2+ against P. aeruginosa” value in the experiment on P. aeruginosa (5 mM CaCl2, as compared to [D]HC-1(R)) is listed as “more pronounced”. Further, the “Loss in activity at 5 mM Mg2+ against P. aeruginosa” value in the experiment with P. aeruginosa is “more”. Besides, the “Antibacterial activity in the presence of 1 mM Ca2+, Gram-negative bacteria” value in the experiment on Gram-negative bacteria is listed as “loss in activity is observed”. In the experiment on Gram-negative bacteria (5 mM CaCl2 in buffer), the “Antibacterial activity in the presence of 5 mM Ca2+, Gram-negative bacteria” value is listed as “further attenuated”. The “MFC C. albicans” value against C. albicans is listed as 2.5 µM (≈ 6.54 µg/mL).
